Data published in patent US4284769A, “Preparation of triazinyl nitriles” (priority 1975, dated 1981).

What was measured:
[1] = Polymerization constant Kp of radical initiators in styrene (dilatometer); settings: initiator 0.05% by weight for poorly soluble ones, normally 0.2%
Experimental: (§1) In these examples the reactivities are determined of the radical initiators and polymerization initiators according to the invention and some known radical initiators. The reactivity is indicated with the polymerization constant Kp. The latter is very much dependent on the temperature and occurs in the formula Rp=Kp (M) (I)^1/2 where Rp is the polymerization speed, (M) the concentration of the monomer and (I) the concentration of the radical initiator (see "Die Makromolekulare Chemie" 157 (1972), p.279 ff). In all determinations 50 ml. of the monomer were mixed with the radial initiators listed in the following Table and transferred to a dilatometer. The dilatometer was cooled to -80° C., filled with nitrogen, followed by applying vacuum to it; the last two treatments were repeated three times. Then the dilatometer was placed in a thermostated bath which had been set to the polymerization temperature mentioned in the table below. The concentration values were determined in accordance with the standard dilatometric technique (see "Angewandte Chemie" 59 (1947), p90). From the values obtained the conversion and the Kp-values were successively determined. The Table below gives the values obtained for the compounds are prepared in the Examples I through VII. For comparison also the Kp-values of some known radical initiators, namely, α,α'-bis(methoxycarbo)α,α'-bis(p-methylphenyl)succinonitrile(dl) (IX), dilauroyl peroxide (X), di-t-butyl perpivalate (XI) and tert. butyl peroxypivalate (XII) are listed in the Table.
(§2) Because of the poor solubility of some of the radical initiators prepared in the preceding examples, the determination of the Kp-value was started from 0.05% by weight, whereas normally 0.2% by weight is included in the monomer to be polymerized. The Kp-values of other radical initiators in styrene are listed in the Tables 2 and 3 on page 283 of the aforementioned article in "Die Makromolekulare Chemie".

[2] = Polymerization constant Kp of radical initiators in methylmethacrylate (dilatometer); settings: initiator 0.05% by weight for poorly soluble ones, normally 0.2%
Experimental: as §1, §2

| SMILES | Kp-value × 10^4 ([1]; temperature 70 °C) | Kp-value × 10^4 ([1]; temperature 80 °C) | Kp-value × 10^4 ([2]; temperature 50 °C) | Kp-value × 10^4 ([2]; temperature 60 °C) | Kp-value × 10^4 ([1]; temperature 90 °C) |
| --- | --- | --- | --- | --- | --- |
| COC(=O)[C@](C#N)(c1ccc(C)cc1)[C@](C#N)(C(=O)OC)c1ccc(C)cc1 (relative stereo) [IX, α,α'-bis(methoxycarbo)α,α'-bis(p-methylphenyl)succinonitrile(dl), reference compound] | 1.3 | 3.4 | – | – | – |
| CSc1nc(SC)nc(C(C#N)(c2ccc(C)cc2)C(C#N)(c2ccc(C)cc2)c2nc(SC)nc(SC)n2)n1 (stereo not drawn) [Example III, α,α'-bis(p-methylphenyl)α,α'-bis(2,4-dimethylthio-1,3,5-triazine)succinonitrile] | – | – | 2.85 | 5.92 | – |
| COc1ccc(C(C#N)(c2nc(OC)nc(OC)n2)C(C#N)(c2ccc(OC)cc2)c2nc(OC)nc(OC)n2)cc1 (stereo not drawn) [Example IV, α,α'-bis(p-methoxyphenyl)α,α'-bis(2,4-dimethoxy-1,3,5-triazine)succinonitrile] | – | – | 1.1 | 2.7 | – |
| CCCCCCCCCCCCCCCCCCOc1nc(OCCCCCCCCCCCCCCCCCC)nc(C(C#N)(c2ccc(C)cc2)C(C#N)(c2ccc(C)cc2)c2nc(OCCCCCCCCCCCCCCCCCC)nc(OCCCCCCCCCCCCCCCCCC)n2)n1 (stereo not drawn) [Example V, α,α'-bis(p-tolyl)α,α'-bis(2,4-distearoxy-1,3,5-triazine)succinonitrile] | 3.05 | 7.86 | 2.32 | 4.48 | – |
| COc1nc(OC)nc(C(C#N)(c2ccc(C)cc2)C(C#N)(c2ccc(C)cc2)c2nc(OC)nc(OC)n2)n1 (stereo not shown) [I + II] | – | – | 3.85 | 7.5 | – |
| Cc1ccc(C(C#N)(c2nc(N3CCCCC3)nc(N3CCCCC3)n2)C(C#N)(c2ccc(C)cc2)c2nc(N3CCCCC3)nc(N3CCCCC3)n2)cc1 (stereo not drawn) [VI, α,α'-bis(p-methylphenyl) α,α'-bis (2,4-dipiperidino-1,3,5-triazine)succinonitrile] | – | 1.60 | no polymerization | no polymerization | 3.56 |
| COc1nc(OC)nc(C(C#N)(c2ccc(Cl)cc2)C(C#N)(c2ccc(Cl)cc2)c2nc(OC)nc(OC)n2)n1 (stereo not drawn) [VII, α,α'-bis(p-chorophenyl)α,α'-bis(2,4-dimethoxy-1,3,5-triazine)succinonitrile] | 6.10 | 5.70 | 2.10 | 5.52 | – |
| CCCCCCCCCCCC(=O)OOC(=O)CCCCCCCCCCC [X, dilauroyl peroxide, reference compound] | 2.4 | 5.8 | – | – | – |
| CC(C)(C)OOC(=O)C(C)(C)C [XI, di-t-butyl perpivalate, reference compound] | 4.2 | 10.1 | – | – | – |
| CC(C)(C)OOC(=O)C(C)(C)C [XII, tert. butyl peroxypivalate, reference compound] | – | – | 3.0 | – | – |
